# Patent publication US9440980B2, “Remedy for diabetes” (EA Pharma Co., Ltd., priority 2007, dated 2016)
# Experiments:
# [1] = system: PI3-kinase α (p110α/p85α); experiment: PI3-kinase subtype activity in the presence of Gβ1γ2-Myc (PIP3 production, 32P-ATP, TLC); type: biochemical; settings: 30 μM, FIG. 13
# Method: The subtypes α (PI3 Kinase (p110α/p85α), active, Upstate, Product No. 14-602), β (PI3 Kinase (p110β/p85α), active, Upstate, Product No. 14-603), γ ((PI3KγHis-GST (Phosphoinositide 3-kinase p110γHis/p101GST) human, Recombinant, Sf9 insect cell, JENA Bioscience, Product No. PR-347S), and δ (PI3 Kinase (p110δ/p85α), active, Upstate, Product No. 14-604) were used as the PI3-kinase subtypes respectively. A PI3K buffer (40 mM HEPES-Na (pH 7.4), 120 mM NaCl, 1 mM EGTA, 1 mM dithiothreitol, 1 mM β glycerophosphoric acid, 10 mM MgCl2, 0.1% BSA) was used as a buffer in the following reactions.
# A mixture liquid of phosphatidylethanolamine (0.256 μmol), phosphatidylserine (0.24 μmol), phosphatidylcholine (0.112 μmol), sphingomyelin (0.024 μmol), and phosphatidylinositol-[4,5]-bisphosphate (0.032 μmol) was added to a glass tube and dried by argon gas, and to this was added the PI3K buffer (0.27 ml) at ice temperature. This solution was ultrasonic-treated in ice to prepare a lipid micelle solution. […] The data were analyzed by a software of BAS2000, the analysis region was controlled such that spots of phosphatidylinositol-[3,4,5]-trisphosphate (PIP3) in the TLC lanes have the same areas, and the energy (PSL) corresponding to each radioactivity was quantified in the region.
# [2] = system: Akt phosphorylation in human liver-derived HLF cell; experiment: Akt phosphorylation activity in Gβ expression inhibited HLF cell (siRNA, Western blot); type: cell-based; settings: FIG. 16
# Method: The effect of Gβ expression inhibition by a siRNA method against the Akt phosphorylation activity of Compound 6 in a human liver-derived HLF cell was evaluated as follows.
# The HLF cells were seeded in a Dulbecco MEM medium containing 10% FCS in a 24-well dish (IWAKI, Product No. 3820-024) at a ratio of 3.75×10^4 cells/well. The cells were cultured at 37° C. for 6 hours in the presence of 5% CO2 to achieve sufficient attachment, a siRNA was transfected into the cells at the concentration of 100 nM using Dharmafect 2 (Dharmacon, Product No. T-2002-02), and the resultant cells were cultured at 37° C. for 48 hours in the presence of 5% CO2. […] Each solution was subjected to an SDS polyacrylamide electrophoresis, and the phosphorylated Akt amount, the Gβ1 amount, the Gβ2 amount, and the Gβ4 amount were measured by a Western blot method using an anti-phosphorylated Akt antibody (Cell Signaling Technologies, Product No. 9271), an anti-Gβ1 antibody (SantaCruz, Product No. sc-379), an anti-Gβ2 antibody (SantaCruz, Product No. sc-380), and an anti-Gβ4 antibody (SantaCruz, Product No. sc-382). […]
Structure (SMILES),effect on PI3-kinase α activity [1],"phosphorylated Akt amount ([2]; HLF cells with Gβ siRNA (Gβ1, Gβ2, Gβ4))",phosphorylated Akt amount ([2]; HLF cells with negative control siRNA)
O=C1NCC2=C1[C@@H](c1cccc3ccsc13)N(C(=O)CCc1ccccn1)[C@@H]1CCCC[C@H]1N2 [Compound 1],only on the PI3-kinase β,,
O=C1NCC2=C1[C@@H](c1ccccc1)N(C(=O)CO)[C@@H]1CCCC[C@H]1N2 [Compound 6],,not detected at any Compound 6 concentration,increased depending on the Compound 6 concentration
